Reference: ChEMBL document CHEMBL1146248, “Cytotoxic small molecule dimers and their inhibitory activity against human breast cancer cells” (Bioorg Med Chem Lett, 2007)

Experiments:
[1] = test system: MCF7; test: Antiproliferative activity against human estrogen receptor positive MCF7 cells after 72 hrs; type: functional, cell-based; conditions: MCF7, 72 h
[2] = test system: SK-BR-3; test: Antiproliferative activity against human estrogen receptor negative SKBr3 cells overexpressing Her2 after 72 hrs; type: functional, cell-based; conditions: SK-BR-3, 72 h

Row | SMILES | IC50 [1] [µM] | IC50 [2] [µM]
1 | Cc1c(O)ccc2cc(NC(=O)c3ccc(C(=O)Nc4cc5ccc(O)c(C)c5oc4=O)nc3)c(=O)oc12 | > 100 | > 100
2 | O=C(Nc1ccc2ccccc2c1)c1ccc(C(=O)Nc2ccc3ccccc3c2)nc1 | > 100 | > 100
3 | O=C(Nc1ccccc1F)c1ccc(C(=O)Nc2ccccc2F)nc1 | > 100 | > 100
4 | O=C(Nc1ccccc1O)c1ccc(C(=O)Nc2ccccc2O)nc1 | > 100 | > 100
5 | O=C(Nc1cc(F)cc(F)c1)c1ccnc(C(=O)Nc2cc(F)cc(F)c2)c1 | 14.7 | > 100
6 | O=C(Nc1ccc(Cl)cc1O)c1ccc(C(=O)Nc2ccc(Cl)cc2O)nc1 | > 100 | > 100
7 | O=C(Nc1ccc(O)cc1)c1ccc(C(=O)Nc2ccc(O)cc2)nc1 | > 100 | > 100
8 | COc1cc(NC(=O)c2ccnc(C(=O)Nc3cc(OC)cc(OC)c3)c2)cc(OC)c1 | > 100 | > 100
9 | O=C(NCCc1ccc2c(c1)OCO2)c1ccc(C(=O)NCCc2ccc3c(c2)OCO3)nc1 | > 100 | > 100
10 | O=C(Nc1ccc(F)c(F)c1)c1ccc(C(=O)Nc2ccc(F)c(F)c2)nc1 | > 100 | > 100
11 | Cc1cc(C)cc(NC(=O)c2ccnc(C(=O)Nc3cc(C)cc(C)c3)c2)c1 | > 100 | > 100
12 | O=C(Nc1cc(F)cc(F)c1)c1cccc(C(=O)Nc2cc(F)cc(F)c2)c1 | > 100 | > 100
13 | COc1cc(NC(=O)c2cccc(C(=O)Nc3cc(OC)cc(OC)c3)c2)cc(OC)c1 | > 100 | > 100
14 | O=C(Nc1ccc2c(c1)OCCO2)c1ccc(C(=O)Nc2ccc3c(c2)OCCO3)c([N+](=O)[O-])c1 | > 100 | > 100
15 | O=C(Nc1cc(Cl)cc(Cl)c1)c1ccc(C(=O)Nc2cc(Cl)cc(Cl)c2)c2ccccc12 | > 100 | > 100
16 | O=C(Nc1ccc2c(c1)OCCO2)c1cccc(C(=O)Nc2ccc3c(c2)OCCO3)n1 | 27.5 | > 100
17 | O=C(Nc1ccc2c(c1)OCCO2)c1ccc(C(=O)Nc2ccc3c(c2)OCCO3)cc1 | > 100 | > 100
18 | O=C(Nc1ccc2c(c1)OCCOCCOCCOCCO2)c1cccc(C(=O)Nc2ccc3c(c2)OCCOCCOCCOCCO3)c1 | > 100 | > 100
19 | O=C(Nc1ccc2c(c1)OCO2)c1ccc(C(=O)Nc2ccc3c(c2)OCO3)nc1 | > 100 | > 100
20 | O=C(NC1CCCCC1)c1ccc(C(=O)NC2CCCCC2)nc1 | > 100 | > 100
21 | O=C(Nc1cc(F)ccc1F)c1ccnc(C(=O)Nc2cc(F)ccc2F)c1 | > 100 | > 100
22 | Cc1cc(C)cc(NC(=O)c2cccc(C(=O)Nc3cc(C)cc(C)c3)n2)c1 | > 100 | > 100
23 | O=C(Nc1ccc(F)c(F)c1)c1cccc(C(=O)Nc2ccc(F)c(F)c2)n1 | > 100 | > 100
24 | O=C(Nc1ccc2ccccc2c1)c1ccnc(C(=O)Nc2ccc3ccccc3c2)c1 | 81.8 | > 100
25 | O=C(Nc1ccc2c(c1)OCCO2)c1cnc(C(=O)Nc2ccc3c(c2)OCCO3)cn1 | > 100 | > 100
26 | N#Cc1ccc(NC(=O)c2cccc(C(=O)Nc3ccc(C#N)cc3)c2)cc1 | > 100 | > 100
27 | O=C(CCCCCCC(=O)Nc1ccc2c(c1)OCCO2)Nc1ccc2c(c1)OCCO2 | > 100 | > 100
28 | O=C(Nc1ccc2c(c1)OCCO2)c1ccc(C(=O)Nc2ccc3c(c2)OCCO3)c2ccccc12 | > 100 | > 100
29 | CO[C@H]1[C@H](OC(=O)c2ccc(C)[nH]2)[C@H](O)[C@@H](Oc2ccc3c(O)c(NC(=O)c4c[nH]c(C(=O)Nc5c(O)c6ccc(O[C@H]7OC(C)(C)[C@@H](OC)[C@H](OC(=O)c8ccc(C)[nH]8)[C@@H]7O)c(C)c6oc5=O)c4C)c(=O)oc3c2C)OC1(C)C [COUMERMYCIN A1] | 6.7 | 3.2

Results, then the compound that gave them:

Row | IC50 [1] [µM] | IC50 [2] [µM] | SMILES
30 | > 100 | > 100 | Cc1cc(C(=O)Nc2ccc3c(c2)OCCO3)c(C)cc1C(=O)Nc1ccc2c(c1)OCCO2
31 | 56.5 | > 100 | O=C(Nc1cccc(Cl)c1)c1cccc(C(=O)Nc2cccc(Cl)c2)c1
32 | > 100 | > 100 | O=C(Nc1ccccc1F)c1cccc(C(=O)Nc2ccccc2F)c1
33 | > 100 | > 100 | O=C(Nc1ccc2c(c1)OCCO2)c1cc(Cl)c(C(=O)Nc2ccc3c(c2)OCCO3)cc1Cl
34 | > 100 | > 100 | O=C(Nc1ccc2c(c1)OCCO2)c1cccc(C(=O)Nc2ccc3c(c2)OCCO3)c1
35 | > 100 | > 100 | O=C(Nc1ccc2c(c1)OCCO2)c1ccnc(C(=O)Nc2ccc3c(c2)OCCO3)c1
36 | 4.2 | 10.5 | O=C(Nc1cc(Cl)cc(Cl)c1)c1ccnc(C(=O)Nc2cc(Cl)cc(Cl)c2)c1
37 | > 100 | > 100 | O=C(Nc1cc(Cl)cc(Cl)c1)c1cc(Cl)c(C(=O)Nc2cc(Cl)cc(Cl)c2)cc1Cl
38 | > 100 | > 100 | Cc1c(O)ccc2cc(NC(=O)c3cccc(C(=O)Nc4cc5ccc(O)c(C)c5oc4=O)n3)c(=O)oc12
39 | > 100 | > 100 | Cc1c(O)ccc2cc(NC(=O)c3cccc(C(=O)Nc4cc5ccc(O)c(C)c5oc4=O)c3)c(=O)oc12
40 | > 100 | > 100 | Cc1cc(C(=O)Nc2cc(Cl)cc(Cl)c2)c(C)cc1C(=O)Nc1cc(Cl)cc(Cl)c1
41 | > 100 | > 100 | O=C(Nc1cc(Cl)cc(Cl)c1)c1ccc(C(=O)Nc2cc(Cl)cc(Cl)c2)cc1
42 | > 100 | > 100 | Cc1c(O)ccc2cc(NC(=O)c3ccnc(C(=O)Nc4cc5ccc(O)c(C)c5oc4=O)c3)c(=O)oc12
43 | > 100 | > 100 | O=C(CCCCCCC(=O)Nc1cc(Cl)cc(Cl)c1)Nc1cc(Cl)cc(Cl)c1
44 | > 100 | > 100 | O=C(Nc1ccc(F)c(F)c1)c1ccnc(C(=O)Nc2ccc(F)c(F)c2)c1
45 | 7.2 | 4.5 | O=C(Nc1ccc2c(c1)OCCOCCOCCOCCO2)c1ccc(C(=O)Nc2ccc3c(c2)OCCOCCOCCOCCO3)nc1
46 | – | > 100 | O=C(Nc1ccc(F)c(F)c1)c1cccc(C(=O)Nc2ccc(F)c(F)c2)c1
47 | > 100 | > 100 | O=C(Nc1cc(F)ccc1F)c1cccc(C(=O)Nc2cc(F)ccc2F)n1

Row | IC50 [1] [µM] | IC50 [2] [µM] | SMILES
48 | > 100 | > 100 | O=C(Nc1cc(F)ccc1F)c1cccc(C(=O)Nc2cc(F)ccc2F)c1
49 | > 100 | > 100 | O=C(Nc1cc(F)cc(F)c1)c1cccc(C(=O)Nc2cc(F)cc(F)c2)n1
50 | 52.1 | > 100 | COc1cc(NC(=O)c2cccc(C(=O)Nc3cc(OC)cc(OC)c3)n2)cc(OC)c1
51 | > 100 | > 100 | O=C(Nc1ccc2c(c1)OCCO2)c1ccc(C(=O)Nc2ccc3c(c2)OCCO3)nc1
52 | > 100 | > 100 | O=C(NCc1ccc2c(c1)OCO2)c1ccc(C(=O)NCc2ccc3c(c2)OCO3)nc1
53 | > 100 | > 100 | N#Cc1ccc(NC(=O)c2ccnc(C(=O)Nc3ccc(C#N)cc3)c2)cc1
54 | 4.6 | 15.2 | O=C(Nc1ccc2ccccc2c1)c1cccc(C(=O)Nc2ccc3ccccc3c2)c1
55 | > 100 | > 100 | O=C(Nc1cc(F)cc(F)c1)c1ccc(C(=O)Nc2cc(F)cc(F)c2)nc1
56 | 22.8 | 34.9 | COc1cc(NC(=O)c2ccc(C(=O)Nc3cc(OC)cc(OC)c3)nc2)cc(OC)c1
57 | > 100 | > 100 | O=C(Nc1cc(F)ccc1F)c1ccc(C(=O)Nc2cc(F)ccc2F)nc1
58 | 16.3 | 104 | Cc1cc(C)cc(NC(=O)c2ccc(C(=O)Nc3cc(C)cc(C)c3)nc2)c1
59 | 27.3 | 28.3 | O=C(Nc1cccc(Cl)c1)c1ccc(C(=O)Nc2cccc(Cl)c2)nc1
60 | 2.4 | 9 | O=C(Nc1cccc(Cl)c1)c1ccnc(C(=O)Nc2cccc(Cl)c2)c1
61 | 40.4 | 87.7 | O=C(Nc1ccccc1F)c1ccnc(C(=O)Nc2ccccc2F)c1
62 | 2.1 | 12.2 | Cc1cc(C)cc(NC(=O)c2cccc(C(=O)Nc3cc(C)cc(C)c3)c2)c1
63 | 10.2 | 16.3 | O=C(Nc1cc(Cl)cc(Cl)c1)c1cccc(C(=O)Nc2cc(Cl)cc(Cl)c2)n1
64 | 2.7 | 4.5 | O=C(Nc1cc(Cl)cc(Cl)c1)c1cccc(C(=O)Nc2cc(Cl)cc(Cl)c2)c1
65 | 4.1 | 2.3 | O=C(Nc1cc(Cl)cc(Cl)c1)c1ccc(C(=O)Nc2cc(Cl)cc(Cl)c2)nc1
